Counter-ions that a name gives are not always drawn.
Columns and labels:
MK2 [1] = target: T1, MK2 (Rattus norvegicus, UniProt Q80ZF4); assay: ELISA MK2 cell-based activity assay (phospho-HSP-27), RMVEC cells; conditions: compound 20 μM, 30 minutes, 37° C.; for Average Response HSP27: phospho-HSP27 ELISA
T1 construct: endogenous in cells; host or cells: rat microvascular endothelial cells (RMVEC)
Protocol: (§1) The MK2 activator candidates, identified using the artificial intelligence (AI)-assisted docking approach, were tested in activity assays for lead selection against the MK2 target. MK2 activation was assessed using (a) a cell-based assay using rat microvascular endothelial cells (RMVEC) and (b) human cancer skin fibroblast cells (Malme-3M). In both assays, an Enzyme-linked ImmunoSorbent Assay (ELISA) technique was used to measure (HSP-27) phosphorylation (DYC2314-2, R&D Systems). Both cell lines were grown to confluency in a 96-well tissue culture plate and treated at 37° C. for 30 minutes with the test compounds at concentrations of 20 μM. The cells were subsequently lysed with a lysis solution containing 0.5% Triton X-100 and anti-proteolysis agents. The resulting lysates were then loaded onto ELISA plates coated with anti-rat phospho-HSP27. After incubation and washing, the plates were treated with an horseradish peroxidase (HRP)-conjugated anti-phospho-HSP27 secondary antibody and then measured for chemiluminescence. Higher activity compounds, acting on MK2, induced higher levels of HSP-27 phosphorylation, as measured by the ELISA.

MK2 [2] = target: T2, MK2 (Homo sapiens, UniProt P49137); assay: ELISA MK2 cell-based activity assay (phospho-HSP-27), Malme-3M cells; conditions: for Ratio to Control / Pho-HSP27: Malme-3M cells, compound 20 μM, 30 minutes, 37° C.; for Pho-HSP27: phospho-HSP27 ELISA
T2 construct: endogenous in cells; host or cells: Malme-3M
Protocol: as §1

T2 sequence (P49137 whole entry): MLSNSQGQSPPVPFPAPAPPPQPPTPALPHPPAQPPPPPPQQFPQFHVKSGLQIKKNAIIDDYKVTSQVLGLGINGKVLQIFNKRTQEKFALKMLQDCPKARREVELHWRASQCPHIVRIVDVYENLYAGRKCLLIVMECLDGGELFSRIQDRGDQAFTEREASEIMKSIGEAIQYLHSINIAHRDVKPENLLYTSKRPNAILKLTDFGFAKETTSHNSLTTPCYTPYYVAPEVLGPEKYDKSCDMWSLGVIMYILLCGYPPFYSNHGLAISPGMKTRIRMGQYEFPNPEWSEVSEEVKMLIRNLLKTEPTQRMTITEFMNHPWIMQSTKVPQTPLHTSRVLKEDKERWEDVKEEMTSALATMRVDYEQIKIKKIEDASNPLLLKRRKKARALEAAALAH
T1 sequence (Q80ZF4 1-386): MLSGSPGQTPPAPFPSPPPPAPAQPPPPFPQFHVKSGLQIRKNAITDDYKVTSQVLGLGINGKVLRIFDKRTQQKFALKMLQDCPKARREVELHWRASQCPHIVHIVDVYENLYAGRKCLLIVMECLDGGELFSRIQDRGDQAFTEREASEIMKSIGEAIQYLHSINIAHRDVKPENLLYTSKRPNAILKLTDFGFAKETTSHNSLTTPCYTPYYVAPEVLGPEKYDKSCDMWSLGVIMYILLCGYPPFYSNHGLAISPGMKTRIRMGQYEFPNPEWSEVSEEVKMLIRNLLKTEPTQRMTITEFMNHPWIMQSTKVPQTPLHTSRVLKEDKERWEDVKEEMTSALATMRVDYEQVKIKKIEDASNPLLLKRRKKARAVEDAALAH

Row | Ratio Compound/control (MK2 [1]) | Average Response HSP27 (MK2 [1]) [pg/mL] | Ratio to Control (MK2 [2]) | Pho-HSP27 (MK2 [2]) [pg/mL] | response in phospho-HSP27 ELISA, overall ranking (MK2 [2]; overall statement on compounds tested at 20 μM (Malme-3M and RMVEC cells)) | Compound
1 | 1.1 | 10.4 |  |  |  | Cl.Cl.OCCN1CCN(CCC=C2c3ccccc3Sc3ccc(C(F)(F)F)cc32)CC1 (mixture of isomers) [Flupenthixol dihydrochloride]
2 | 1.3 | 5.2 |  |  |  | Cc1oncc1C(=O)Nc1ccc(C(F)(F)F)cc1 [Compound 72, Leflunomide]
3 | 1.0 | 6.6 |  |  |  | CCc1cc(/C(C)=N/OCc2ccc(C3CCCCC3)c(C(F)(F)F)c2)ccc1CN1CC(C(=O)O)C1 [Compound 76, Siponimod]
4 | 0.9 | 4.2 |  |  |  | COCCOc1ccc(N2CCN(CCn3ncc4c3nc(N)n3nc(-c5ccco5)nc43)CC2)cc1 [Compound 106, Preladenant]
5 |  |  | 0.8 | 17.3 |  | CC(C)Nc1cccnc1N1CCN(C(=O)c2cc3cc(NS(C)(=O)=O)ccc3[nH]2)CC1 [Compound 108, Delavirdine]
6 | 0.1 | 1.2 |  |  |  | OCC(O)CN1CCN(c2ccccc2)CC1 (centres unmarked) [Dropropizine]
7 | 1.3 | 11.7 |  |  |  | O=C(Nc1cccc(C2=NCCN2)c1)Nc1cccc(C2=NCCN2)c1 [Imidocarb dipropionate]
8 | 1.3 | 11.7 |  |  |  | N=C(N)c1ccc2cc(OC(=O)c3ccc(N=C(N)N)cc3)ccc2c1 [Nafamostat Mesylate]
9 | 2.2 | 43.2 |  |  |  | O=C1[C@H]2CCCC[C@H]2C(=O)N1CCCCN1CCN(c2nsc3ccccc23)CC1 [Perospirone hydrochloride]
10 | 1.5 | 32.3 |  |  |  | O=C1Cc2cc(CCN3CCN(c4nsc5ccccc45)CC3)c(Cl)cc2N1 [Ziprasidone HCl]
11 | 0.7 | 11.8 |  |  |  | Cl.Cl.Cl.O[C@@H](COc1cccc2ncccc12)CN1CCN([C@@H]2c3ccccc3[C@@H]3[C@H](c4ccccc42)C3(F)F)CC1 [Zosuquidar (LY335979) 3HCl]
12 | 1.1 | 18.4 |  |  |  | Delavirdine (mesylate)
13 | 2.7 | 11.7 |  |  |  | MK2-AP (batch#2): presumably the positively charged MK2-activating peptide YARAAARQARAHPRNPARRTPGTRRGAPAA (SEQ ID NO: 7) (MK2 peptide fragment)

The next lines start with the compound.

Row | Compound | Ratio Compound/control (MK2 [1]) | Average Response HSP27 (MK2 [1]) [pg/mL] | Ratio to Control (MK2 [2]) | Pho-HSP27 (MK2 [2]) [pg/mL] | response in phospho-HSP27 ELISA, overall ranking (MK2 [2]; overall statement on compounds tested at 20 μM (Malme-3M and RMVEC cells))
14 | c1cc(OCCN2CCCCC2)cc(-c2n[nH]c3ccc(-c4nc[nH]n4)cc23)c1 [CC-401 Hydrochloride] | 0.9 | 6.3 |  |  | 
15 | Cc1ccccc1-c1cc(N2CCN(C)CC2)ncc1N(C)C(=O)C(C)(C)c1cc(C(F)(F)F)cc(C(F)(F)F)c1 [Compound 9, Netupitant] | 0.7 | 2.7 |  |  | 
16 | COc1ccc(-c2ccc3ncc4c(c3c2)n(-c2ccc(N3CCNCC3)c(C(F)(F)F)c2)c(=O)n4C)cn1 [Compound 14, Bgt-226] | 1.1 | 19.4 | 1.2 | 26.9 | 
17 | Cc1nc2n(c(=O)c1CCN1CCC(c3noc4cc(F)ccc34)CC1)CCCC2O (centres unmarked) [Compound 20, Paliperidone] | 1.1 | 4.3 |  |  | 
18 | O=C1[C@H]2CCCC[C@H]2C(=O)N1CCCCN1CCN(c2nsc3ccccc23)CC1 [Compound 23, Perospirone] |  |  | 32.0 | 720.7 | most robust response
19 | O=C1Cc2cc(CCN3CCN(c4nsc5ccccc45)CC3)c(Cl)cc2N1 [Compound 24, Ziprasidone] |  |  | 1.6 | 35.4 | 
20 | COc1cc2ncnc(Oc3cccc(NC(=O)Nc4cc(C(C)(C)C(F)(F)F)on4)c3)c2cc1OC [Compound 27, Cep-32496] | 0.9 | 6.2 |  |  | 
21 | CCn1cc(-c2ccnc3[nH]c(-c4cccc(CN(C)C)c4)cc23)c(-c2ccc(NC(=O)N(C)C)cc2)n1 [Compound 28, Gsk-1070916] | 0.2 | 0.9 |  |  | 
22 | C[C@@H](Oc1cc(-n2cnc3ccc(CN4CCN(C)CC4)cc32)sc1C(N)=O)c1ccccc1C(F)(F)F [Compound 29, Gsk-461364] | 1.8 | 39.0 | 1.0 | 22.1 | 
23 | Cn1cc(-c2ccc(F)c(C(F)(F)F)c2)nc1C1CCN(c2ncnc3[nH]ncc23)CC1 [Compound 30, Ly-2584702] | 0.3 | 0.0 |  |  | 
24 | Cc1csc(-c2nnc(Nc3ccc(Oc4ncccc4-c4ccnc(N)n4)cc3)c3ccccc23)c1 [Compound 33, Amg- 900] | 1.6 | 20.4 | 0.9 | 21.2 | 
25 | Cc1nc(Nc2[nH]nc3c2CN(C(=O)N[C@H](CN(C)C)c2ccccc2)C3(C)C)c2sccc2n1 [Compound 39, Pf-03758309] | 1.0 | 4.8 |  |  | 
26 | CC(C)c1cc(CNc2nc(Nc3cc(C4CC4)[nH]n3)cc(N3CCN(C)CC3)n2)on1 [Compound 43, Xl-228] | 0.4 | 5.7 |  |  | 
27 | CC(=O)N1CCN(CCOc2ccc(C3CCN(C4=Nn5c(nnc5C(F)(F)F)CC4)CC3)cc2)CC1 [Compound 44, Azd3514] | 0.9 | 5.9 |  |  | 
28 | CCS(=O)(=O)c1cccc(-c2cc(C(=O)NC3CCN(C)CC3)c(C)c3[nH]c4ncc(C)cc4c23)c1 [Compound 46, Tak-901] | 0.2 | -0.2 |  |  | 
29 | Cn1c(Nc2ccc(C(F)(F)F)cc2)nc2cc(Oc3ccnc(-c4ncc(C(F)(F)F)[nH]4)c3)ccc21 [Compound 47, Chir-265] | 0.9 | 8.5 |  |  | 
30 | Cc1c(NC(=O)OC[C@@H]2COCCN2)cn2ncnc(Nc3ccc4c(cnn4Cc4cccc(F)c4)c3)c12 [Compound 49, Ac-480] | 1.3 | 12.1 |  |  | 
31 | CCN1CCN(Cc2ccc(NC(=O)Nc3ccc(Oc4cc(NC)ncn4)cc3)cc2C(F)(F)F)CC1 [Compound 55, Ast-487] | 1.3 | 9.0 |  |  | 
32 | Cc1cc(Nc2cc(N3CCN(C)CC3)nc(/C=C/c3ccccc3)n2)n[nH]1 [Compound 56, Enmd-2076] | 0.3 | 4.6 |  |  | 
33 | CNCc1ccc(C)c(NC(=O)c2ccc(Nc3nc(-c4ccccc4)c4ccccc4n3)cc2)c1 [Compound 57, Bms - 833923] | 1.3 | 8.8 |  |  | 
34 | NC(=O)[C@@H](CCC(F)(F)F)N(Cc1ccc(-c2ncon2)cc1F)S(=O)(=O)c1ccc(Cl)cc1 [Compound 115, Avagacestat] | 0.8 | 5.7 |  |  | 
35 | Cc1cc(N2CCN([C@@H]3CN[C@H](C(=O)N4CCSC4)C3)CC2)n(-c2ccccc2)n1 [Teneligliptin hydrobromide] | 0.8 | 4.0 |  |  | 
